Laboratory results published in article PMC10294875, “Ether Derivatives of Naringenin and Their Oximes as Factors Modulating Bacterial Adhesion” (Antibiotics, 2023).

Experiments:
[1] = system: Enterococcus faecalis (ATCC 29212); assay: Bioflux microfluidic adhesion: E. faecalis to HT-29 cell line; type: cell-based; details: 50 µg/mL, control 1.55 ± 0.15
Procedure: (§1) Determination of the impact of a dynamic medium flow on the adhesive capacity of bacteria was performed using the Bioflux 1000Z (Fluxion, San Francisco, CA, USA) with a coupled microscope environmental chamber (Pecton Incubator XL S1, Carl Zeiss, Jena, Germany), enabling the maintenance of 37 °C and microaerophilic conditions. At the very beginning, all channels of dedicated microfluidic plates (Fluxion, San Francisco, CA, USA) were flushed with 100 µL of αMEM or DMEM high-glucose medium with supplements (further named “cell line medium”; for details of the supplementation see “Cell culture procedure”) applying an intensive flow of 10 dyne/cm^2 for 10 s. After unblocking the lumen of the channels, the inlet and outlet wells were emptied, and 20 µL of 100 µg/mL fibronectin solution (Sigma-Aldrich, Taufkirchen, Germany) was added to each inlet channel. The medium was turned in the outlet direction at a flow rate of 1 dyne/cm^2 for 1 min. After this step, the plate was left for a 1 h incubation period to allow fibronectin to be absorbed on the surface of the microcapillaries. […] After completing this stage, photographs of the microcapillaries containing the tested biological materials were taken using an inverted fluorescence microscope (GabH, Jena, Germany) and the Bioflux Montage software (Fluxion, San Francisco, CA, USA). […]

HT-29 cell line = assay: SRB assay, antiproliferative activity against HT-29; type: cell-based, human; details: Homo sapiens; 2 h incubation, SRB assay, HT-29
Procedure: (§2) The human adenocarcinoma cell line, HT-29 (ATCC HTB-38), was cultured in αMEM medium (IITD PAN) supplemented with 10% fetal bovine serum, FBS (Sigma-Aldrich, Taufkirchen, Germany), 100 U/mL penicillin, 100 µg/mL streptomycin antibiotic solution (Sigma-Aldrich, Taufkirchen, Germany), and 2 mM glutamine solution (Sigma-Aldrich, Taufkirchen, Germany). Cells from less than 20 passages were used for the study. In turn, preadipocytes from mouse embryos with the morphology of fibroblast cells, line 3T3-L1 (ATCC CL-173), were cultured in DMEM high-glucose medium (Life Technologies Corporation, Carlsbad, CA, USA) with the same supplements as above. Cells from less than 14 passages were used for the study. Both tested cell lines were grown at 37 °C in 5% CO2.
(§3) The effect of O-alkyl derivatives of naringenin and their oximes on eukaryotic cells was checked using a slightly modified SRB test described earlier. Firstly, HT-29 (1 × 10^5 cells/mL) and 3T3-L1 (5 × 10^4 cells/mL) cell lines were incubated in adherent microtiter plates under the conditions described above. The cells were then treated for 2 h with the tested compounds 1a–10a and 1b–10b at concentrations of 1, 5, 10, 25, 50, 75, and 100 µg/mL each. After this time, the medium was removed and replaced with one containing 50% (wt/vol) trichloroacetic acid (TCA; Sigma-Aldrich, Taufkirchen, Germany). Following 1 h of incubation at 4 °C, the plate was rinsed with water, and then an acidic solution of 0.4% sulforhodamine B (SRB) (Sigma-Aldrich, Taufkirchen, Germany), was added to the dried wells and incubated in the dark for half an hour. At the end of this time, the SRB solution was replaced by 1% (vol/vol) acetic acid, and the stained protein precipitate was dissolved in 10 mM Tris base solution (pH 10.5). Absorbance was measured at 560 nm in a plate reader (GloMax Discover Microplate Reader, Promega).
(§4) The cytotoxic effect of O-alkyl derivatives of naringenin and their oximes on eukaryotic cells was expressed as the concentration of the tested compounds at which 50% growth inhibition of the tested cell lines was observed. Values were presented in the form of the survival index (SI)–IC50. All determinations were repeated in three independent experiments, each performed in three technical replicates. Moreover, the effect of DMSO (Sigma-Aldrich, Taufkirchen, Germany), the solvent present in all the initial solutions of the tested compounds, on the growth of the cell lines used in the study was also verified.

[2] = system: Enterococcus faecalis (ATCC 29212); assay: Bioflux microfluidic adhesion: E. faecalis to 3T3-L1 cell line; type: cell-based; details: 50 µg/mL, control 0.29 ± 0.11
Procedure: as §1

[3] = system: Escherichia coli K12 (ATCC 10798); assay: Adhesion assay, static conditions: E. coli to 3T3-L1 cell line; type: cell-based
Procedure: The study used two reference strains, Escherichia coli K12 (ATCC 10798) and Enterococcus faecalis (ATCC 29212), obtained from the American Type Culture Collection. Both strains were stored in trypticase soy broth (TSB; OXOID, Basingstoke, UK) with the addition of 30% glycerol at −70 °C in the museum resources of the Department of Microbiology at the Wroclaw Medical University.
For studies determining the interaction of bacteria with eukaryotic cells, suspensions of the tested strains were prepared in Luria broth (LB, Becton, Dickinson and Company, USA) medium with a bacterial density of 6 × 10^8 CFU/mL.
The adhesion ability of the tested bacterial strains to HT-29 and 3T3-L1 cell lines was determined by an in vitro adhesion assay as described previously. Eukaryotic cells were infected with prokaryotic cells in the presence of the examined compounds in pre-selected concentrations at an MOI (multiplicity of infection) ratio of 50. Cells were exposed to the tested strains and compounds for 2 h. After this time, unbound bacteria were removed by washing with PBS (Life Technologies Corporation, Carlsbad, CA, USA). The lysates acquired by cell lysis (0.5% Triton X-100 in LB): 90 min, 37 °C, 5% CO2 atmosphere, were then seeded onto TSA and MC media for E. faecalis and E. coli, respectively. The assays were performed in at least three independent experiments (cells from subsequent passages), each in triplicate. A control without tested compounds was set for each strain.

[4] = system: Escherichia coli K12 (ATCC 10798); assay: Bioflux microfluidic adhesion: E. coli to HT-29 cell line; type: cell-based; details: 50 µg/mL, control 0.65 ± 0.07
Procedure: as §1

[5] = system: Escherichia coli K12 (ATCC 10798); assay: Bioflux microfluidic adhesion: E. coli to 3T3-L1 cell line; type: cell-based; details: 50 µg/mL, control 0.37 ± 0.13
Procedure: as §1

3T3-L1 cell line = assay: SRB assay, antiproliferative activity against 3T3-L1; type: cell-based, mouse; details: Mus musculus; 2 h incubation, SRB assay, 3T3-L1
Procedure: as §2, §3, §4

cell membranes = system: cell membranes; set-up: method as in PMID 10839220; details: cited from earlier work

| Compound | BB/EC ratio [1] | IC50 (HT-29 cell line) | BB/EC ratio [2] | effect on adhesion of E. coli to 3T3-L1 (in words) [3] | BB/EC ratio [4] | BB/EC ratio (area of bacterial biomass adhered to the surface of the eukaryotic cells) [5] | IC50 (3T3-L1 cell line) | concentration at which the membrane-solidifying effect is revealed (cell membranes) |
| --- | --- | --- | --- | --- | --- | --- | --- | --- |
| CCCCCCCCCOc1ccc([C@@H]2CC(=NO)c3c(O)cc(OCCCCCCCCC)cc3O2)cc1 [Compound 8b, 7,4’-di-O-nonylnaringenin oxime] | 1.36 ± 0.08 | > 100 µg/mL | 0.28 ± 0.15 | strongly enhance | 1.03 ± 0.06 | 0.6 ± 0.12 | > 100 µg/mL | – |
| O=C1C[C@@H](c2ccc(O)cc2)Oc2cc(O)cc(O)c21 [NG, naringenin] | – | > 100 µg/mL | – | – | – | – | > 100 µg/mL | ≥ 2.5 µg/mL |
